Source: ChEMBL document CHEMBL4304783, “Discovery of a Novel Selective Dual Peroxisome Proliferator-Activated Receptor α/δ Agonist for the Treatment of Primary Biliary Cirrhosis” (ACS Med Chem Lett, 2019)
Calls of active or inactive are those of the source. No cut-off for these calls is given here.

Legend:
[1] = molecular target: T1, Peroxisome proliferator-activated receptor alpha (Homo sapiens, UniProt Q07869); experiment: Agonist activity at PPARalpha (unknown origin) incubated for 3 to 16 hrs by pathhunter nuclear hormone receptor assay
T1 sequence (Q07869 whole entry): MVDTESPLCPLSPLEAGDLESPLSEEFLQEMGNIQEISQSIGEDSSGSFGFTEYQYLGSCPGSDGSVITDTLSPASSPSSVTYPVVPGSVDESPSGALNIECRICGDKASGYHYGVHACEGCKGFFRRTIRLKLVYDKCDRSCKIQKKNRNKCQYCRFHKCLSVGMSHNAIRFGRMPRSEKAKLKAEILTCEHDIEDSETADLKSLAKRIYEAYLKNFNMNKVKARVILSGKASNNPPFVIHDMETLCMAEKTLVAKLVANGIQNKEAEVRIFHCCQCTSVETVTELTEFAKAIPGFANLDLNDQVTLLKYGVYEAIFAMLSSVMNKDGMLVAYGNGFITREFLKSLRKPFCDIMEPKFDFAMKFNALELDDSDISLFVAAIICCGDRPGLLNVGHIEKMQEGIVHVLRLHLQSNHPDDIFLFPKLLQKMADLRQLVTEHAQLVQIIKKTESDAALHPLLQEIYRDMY

[2] = molecular target: T2, Peroxisome proliferator-activated receptor alpha (Homo sapiens) (UniProt Q07869); experiment: Agonist activity at PPARalpha (unknown origin) incubated for 3 to 16 hrs by pathhunter nuclear hormone receptor assay relative to GW7647; parameters: concentration or dose not given beside the values
T2 sequence (whole entry): T1 sequence (Q07869 whole entry)

[3] = molecular target: T3, Peroxisome proliferator-activated receptor delta (Homo sapiens, UniProt Q03181); experiment: Agonist activity at PPARbeta (unknown origin) incubated for 3 to 16 hrs by pathhunter nuclear hormone receptor assay
T3 sequence (Q03181 whole entry): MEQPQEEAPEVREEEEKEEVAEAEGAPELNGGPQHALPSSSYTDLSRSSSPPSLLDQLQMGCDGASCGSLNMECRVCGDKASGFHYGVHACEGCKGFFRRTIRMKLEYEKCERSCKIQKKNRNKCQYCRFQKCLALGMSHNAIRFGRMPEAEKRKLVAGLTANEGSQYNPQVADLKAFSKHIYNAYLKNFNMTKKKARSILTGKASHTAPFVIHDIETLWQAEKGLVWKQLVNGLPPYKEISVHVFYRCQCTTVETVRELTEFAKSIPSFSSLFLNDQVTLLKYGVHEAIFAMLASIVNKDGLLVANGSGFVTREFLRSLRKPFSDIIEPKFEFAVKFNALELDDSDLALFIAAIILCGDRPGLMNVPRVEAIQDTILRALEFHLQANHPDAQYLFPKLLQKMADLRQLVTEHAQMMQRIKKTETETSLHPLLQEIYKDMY

[4] = system: Rattus norvegicus; experiment: Hepatoprotective activity in Sprague-Dawley rat assessed as reduction in ANIT-stimulated total bilirubin level at 20 mg/kg, ig administered for 8 days by biochemical analysis; assay type: functional, organism-based
[5] = system: Rattus norvegicus; experiment: Hepatoprotective activity in Sprague-Dawley rat assessed as reduction in ANIT-stimulated fibrosis area at 20 mg/kg, ig administered for 8 days by hematoxylin and eosin staining based mopho-metric analysis; assay type: functional, organism-based
[6] = system: Rattus norvegicus; experiment: Hepatoprotective activity in Sprague-Dawley rat assessed as reduction in ANIT-stimulated inflammatory score at 20 mg/kg, ig administered for 8 days by hematoxylin and eosin staining based mopho-metric analysis; assay type: functional, organism-based
[7] = system: Rattus norvegicus; experiment: Hepatoprotective activity in Sprague-Dawley rat assessed as reduction in ANIT-stimulated fibrosis area at 30 mg/kg, ig administered for 8 days by hematoxylin and eosin staining based mopho-metric analysis; assay type: functional, organism-based
[8] = system: Rattus norvegicus; experiment: Hepatoprotective activity in Sprague-Dawley rat assessed as reduction in ANIT-stimulated inflammatory score at 30 mg/kg, ig administered for 8 days by hematoxylin and eosin staining based mopho-metric analysis; assay type: functional, organism-based
[9] = system: Rattus norvegicus; experiment: Hepatoprotective activity in Sprague-Dawley rat assessed as reduction in ANIT-stimulated total bilirubin level at 30 mg/kg, ig administered for 8 days by biochemical analysis; assay type: functional, organism-based
[10] = molecular target: T4, Peroxisome proliferator-activated receptor gamma (Homo sapiens) (UniProt P37231); experiment: Agonist activity at PPARgamma (unknown origin) incubated for 3 to 16 hrs by pathhunter nuclear hormone receptor assay relative to Troglitazone
T4 sequence (whole entry): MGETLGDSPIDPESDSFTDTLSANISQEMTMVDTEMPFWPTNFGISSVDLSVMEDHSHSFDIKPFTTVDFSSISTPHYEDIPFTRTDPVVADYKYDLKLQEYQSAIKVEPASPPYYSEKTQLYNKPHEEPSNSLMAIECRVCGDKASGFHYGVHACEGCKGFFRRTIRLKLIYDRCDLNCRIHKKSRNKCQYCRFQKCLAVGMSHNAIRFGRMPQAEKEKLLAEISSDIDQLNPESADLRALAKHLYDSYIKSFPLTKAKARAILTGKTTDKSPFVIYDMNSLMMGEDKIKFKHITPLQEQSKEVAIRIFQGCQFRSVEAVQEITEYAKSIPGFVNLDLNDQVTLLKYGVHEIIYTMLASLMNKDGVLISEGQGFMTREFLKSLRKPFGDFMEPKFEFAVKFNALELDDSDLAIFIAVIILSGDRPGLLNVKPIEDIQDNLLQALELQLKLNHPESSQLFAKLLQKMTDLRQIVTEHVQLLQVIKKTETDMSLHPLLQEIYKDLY

[11] = molecular target: T5, Peroxisome proliferator-activated receptor delta (Homo sapiens) (UniProt Q03181); experiment: Agonist activity at PPARbeta (unknown origin) incubated for 3 to 16 hrs by pathhunter nuclear hormone receptor assay relative to L-165,041
T5 sequence (whole entry): T3 sequence (Q03181 whole entry)

[12] = molecular target: T2, Peroxisome proliferator-activated receptor alpha (Homo sapiens); experiment: Potency index, ratio of EC50 of GFT505 to ratio of EC50 of compound for agonist activity at PPARalpha (unknown origin) incubated for 3 to 16 hrs by pathhunter nuclear hormone receptor assay
[13] = molecular target: T6, Peroxisome proliferator-activated receptor gamma (Homo sapiens, UniProt P37231); experiment: Agonist activity at PPARgamma (unknown origin) incubated for 3 to 16 hrs by pathhunter nuclear hormone receptor assay
T6 sequence (P37231 whole entry): T4 sequence (whole entry)

[14] = molecular target: PPAR delta/gamma (Homo sapiens) (UniProt P37231+Q03181); experiment: Selectivity index, ratio of EC50 of PPARgamma (unknown origin) to EC50 of PPARdelta (unknown origin); assay type: protein assay
[15] = species: Homo sapiens; experiment: Selectivity index, ratio of EC50 of PPARgamma (unknown origin) to EC50 of PPARalpha (unknown origin)

Cc1cc(Cc2onc3c2CCOc2cc(Br)ccc2-3)cc(C)c1OC(C)(C)C(=O)O
EC50 [1]: 3420 nM
Activity [2]: 85%

Cc1cc(Cc2cc(-c3ccccc3)on2)cc(C)c1OC(C)(C)C(=O)O
EC50 [1]: 385 nM
Activity [2]: 85%

Cc1cc(Cc2noc3c2CCOc2cc(Br)ccc2-3)cc(C)c1OC(C)(C)C(=O)O
EC50 [1]: 8970 nM
Activity [2]: 50%

CCCc1c(OCCCOc2ccc(OCC(=O)O)cc2)ccc(C(C)=O)c1O
EC50 [3]: 61 nM

CC[C@H]1[C@@H](O)[C@@H]2[C@H](CC[C@]3(C)[C@@H]([C@H](C)CCC(=O)O)CC[C@@H]23)[C@@]2(C)CC[C@@H](O)C[C@@H]12
Activity [4]: Active
Activity [5]: inactive
Activity [6]: inactive

CSc1ccc(C(=O)/C=C/c2cc(C)c(OC(C)(C)C(=O)O)c(C)c2)cc1 [ELAFIBRANOR]
Activity [7]: inactive
EC50 [1]: 225 nM
Activity [8]: inactive
Activity [2]: 117%
Activity [9]: Active
Activity [10]: 93%
Activity [11]: 72%

Cc1cc(Cc2cnoc2-c2ccc(Br)cc2)cc(C)c1OC(C)(C)C(=O)O
EC50 [1]: 2820 nM
Activity [2]: 78%

Cc1cc(CCc2cc(-c3ccc(Br)cc3)on2)cc(C)c1OC(C)(C)C(=O)O
EC50 [3]: 5 nM
Ratio EC50 [12]: 8 to 28
EC50 [1]: 27 nM
EC50 [13]: 457 nM
Ratio EC50 [14]: 91
Activity [2]: 134%
Ratio EC50 [15]: 17
Activity [10]: 78%
Activity [11]: 73%

Cc1cc(-c2cc(-c3ccc(Br)cc3)on2)cc(C)c1OC(C)(C)C(=O)O
EC50 [1]: > 10000 nM
Activity [2]: 5%
